Data published in patent US20160022751A1, “NOVEL COMPOSITION FOR TREATING ALZHEIMER'S DISEASE AND IMPROVING COGNITIVE FUNCTION OF ALZHEIMER'S PATIENTS” (GANGNEUNG-WONJU NATIONAL UNIVERSITY INDUSTRY ACADEMY …, priority 2014, published 2016).

Assays:
SRA = SRA mRNA expression in HMO6 human microglial cells (qPCR); assay type: cell-based; conditions: Rg3-treated HMO6 cells (FIG. 14)
Protocol: HMO6 human microglial cell line was kindly provided by Dr. SU Kim (Chung-Ang University, Korea). HMO6 cells were grown in Dulbecco's Modified Eagle's Medium (DMEM) (Hyclone, USA) supplemented with 10% fetal bovine serum, 100 U/ml penicillin, and 100 μg/ml streptomycin (Invitrogen, USA). Cultures were maintained under 5% CO2 at 37° C. in tissue culture flasks. Cells were grown to >90% confluency and subjected to no more than 20 cell passages. Medium was changed every 2-3 days. Subconfluent cells were harvested and seeded at a density of 5×10^5 cells or 5×10^6 cells in poly-L-lysine-coated 35-mm or 60-mm culture plates. […]
(§1) Total RNA extracts from HMO6 cells or perfused brain tissue were prepared using the Trizol method (Invitrogen). cDNA was synthesized from RNA by reverse transcription of 1 μg total RNA using the Improm-II reverse transcription system (Promega, Wis., USA) and oligo dT primers in a total volume of 20 μl. […] Relative sample expression levels were calculated using Rotor-Gene 6000 Series Software 1.7 and were expressed relative to β-actin for mice or glyceraldehyde 3-phosphate dehydrogenase for HMO6 cells and corrected for between-run variability. Data for the experimental samples are expressed as a percentage of the internal control gene. […]

caveolin1 = assay: Caveolin1 mRNA expression in HMO6 human microglial cells (qPCR); assay type: cell-based; conditions: Aβ42 (5 μM) and/or Rg3 (2.5 or 5 μg/ml), 24 h (FIG. 15A-B)
Protocol: FIG. 15 is a graph showing a change in the expression of caveolin-1, caveolin-2, clathrin, neprilysin (NEP), insulin-degrading enzyme (IDE) according to treating Aβ and/or ginsenoside Rg3 to HMO6 human microglial cells. HMO6 cells were plated on 35 mm cell culture plates or chamber slides and Aβ42 (5 μM) and/or Rg3 (2.5 or 5 μg/ml) were treated for 24 h. Then, the mRNA expression was determined by quantitative RT-PCR. The expression of caveolin (A-B), clathrin (C) which are endocytosis-related genes and NEP (D) and IDE (E) which are genes encoding Aβ-degrading enzymes were compared depending on the presence or absence of Rg3/Aβ42. The results are shown as mean±SD. * P<0.05, ** P<0.01, *** P<0.001. […]
as §1

ERK = ERK phosphorylation in HMO6 cells (western blot); assay type: cell-based, human; conditions: Rg3 5 μg/ml, western blot (FIG. 18)
Protocol: FIG. 18 is a photograph showing a result of western blot analysis for confirming the degree of phosphorylation of ERK (extracellular-regulated kinase) and p38, according to an embodiment of the present invention. Depending on the presence of Rg3, the levels of phospho-ERK and phospho-p38 protein were investigated by immune-blotting. HMO6 cells were treated with Rg3 (5 μg/ml) after plated on 60 mm cell culture plates and western blot analysis was performed after the cells were placed in phenol red negative/sere-free DMEM medium for 1 h. The western blot analysis was carried out three times independently.
HMO6 cells were lysed in 1% RIPA buffer containing protease and phosphatase inhibitors (Roche, Mannheim, Germany) and whole-cell lysates were separated on 10% sodium dodecyl sulfate-polyacrylamide gel electrophoresis. After electrophoresis, the proteins were transferred to polyvinylidene fluoride membranes, and the membranes were blocked with 5% skim milk in Tris-buffered saline solution containing 0.1% Tween-20. The membranes were then immunoblotted with primary antibodies, anti-phospho-p38, anti-p38, anti-phospho-ERK, anti-ERK, and anti-f3-actin (Santa Cruz Biotechnology, USA), followed by incubation with horseradish peroxidase-conjugated anti-rabbit or anti-mouse secondary antibodies (Stressgen, USA). Blots were developed using an enhanced chemiluminescent solution (Thermo, USA).

HMO6 cells = assay: Uptake of FITC-labeled Aβ42 in HMO6 cells (live-cell imaging); assay type: cell-based, human; conditions: HMO6 cells pre-treated with Rg3 5 μg/ml for 20 h, after 30 min, persisted for 6 h (FIG. 21)
Protocol: The stably transfected HM06.hSRA cells prepared in Example 5-5 were plated into 96-well plates at 5000 cells/well to analyze Aβ uptake. […] […] Fluorescence intensities represented the number of cells (count/mm^2) over the time to quantify cells with FITC-labeled Aβ42 peptides. Aβ42 uptake was calculated using the following equation (FIG. 21):

Structure (SMILES): CC(C)=CCC[C@](C)(O)[C@H]1CC[C@]2(C)[C@@H]1[C@H](O)C[C@@H]1[C@@]3(C)CC[C@H](O[C@@H]4O[C@H](CO)[C@@H](O)[C@H](O)[C@H]4O[C@@H]4O[C@H](CO)[C@@H](O)[C@H](O)[C@H]4O)C(C)(C)[C@@H]3CC[C@]12C [ginsenoside Rg3]
- SRA mRNA expression (SRA): dose-dependently increased
- caveolin1-mediated Aβ42 endocytosis (caveolin mRNA) (caveolin1): promoted Aβ42 uptake into HMO6 cells via a caveolin1 and clathrin-mediated endocytic mechanism
- phosphorylation of ERK (ERK): promoted the phosphorylation
- Aβ42 uptake (HMO6 cells): increased Aβ42 uptake significantly
